Patent US5210193A, “Piperazine derivatives” (American Cyanamid Company, priority 1990, dated 1993)
Values after ≈ are worked out from the molar mass of the structure shown.

Experiments:
[1] = tested on: Staphylococcus aureus Smith; assay: in vivo antibacterial activity, survival of infected mice (Table III); design: species or system Charles River CD-1 mice; details: subcutaneous
Procedure: (§1) Charles River CD-1 mice were infected with either Klebsiella pneumoniae AD or Staphylococcus aureus Smith. A single subcutaneous dose of the test compound was administered 1/2 hour after infection. […] The results appear in Tables II and III, wherein the representative test compounds are identified by the number of their hereinafter described examples.

[2] = tested on: Pseudomonas aeruginosa VGH 84-4; assay: in vitro antibacterial MIC, agar plate dilution; type: cell-based; details: Pseudomonas aeruginosa, VGH844, 18 h, 35° C., read-out: MIC
Procedure, shortened: (§2)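 Agar plate dilution on Mueller-Hinton agar, inoculum about 10^4 CFU per spot applied with a Steers replicator. MIC (mcg/ml) is the lowest compound concentration preventing visible growth after 18 h at 35 °C.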

[3] = tested on: Staphylococcus aureus Smith; assay: in vitro antibacterial MIC, agar plate dilution; type: cell-based; details: Staphylococcus aureus, 18 h, 35° C., read-out: MIC
Procedure, shortened: as §2

[4] = tested on: Enterobacter aerogenes VGH 84-36; assay: in vitro antibacterial MIC, agar plate dilution; type: cell-based; details: Klebsiella aerogenes, VGH8436, 18 hours, 35° C., read-out: MIC
Procedure, shortened: as §2

[5] = tested on: Proteus rettgeri CMC 84-41; assay: in vitro antibacterial MIC, agar plate dilution; type: cell-based; details: Providencia rettgeri, CMC8441, 18 h, 35° C., read-out: MIC
Procedure, shortened: as §2

[6] = tested on: Klebsiella pneumoniae AD; assay: in vitro antibacterial MIC, agar plate dilution; type: cell-based; details: Klebsiella pneumoniae, 18 h, 35° C., read-out: MIC
Procedure, shortened: as §2

[7] = tested on: Escherichia coli CMC 84-11; assay: in vitro antibacterial MIC, agar plate dilution; type: cell-based; details: Escherichia coli, CMC8411, 18 h, 35° C., read-out: MIC
Procedure, shortened: as §2

[8] = tested on: Staphylococcus aureus ATCC 25913; assay: in vitro antibacterial MIC, agar plate dilution; type: cell-based; details: ATCC25913, 18 hours, 35° C.
Procedure, shortened: as §2

[9] = tested on: Enterobacter cloacae VGH 84-37; assay: in vitro antibacterial MIC, agar plate dilution; type: cell-based; details: Enterobacter cloacae, VGH8437, 18 h, 35° C., read-out: MIC
Procedure, shortened: as §2

[10] = tested on: Morganella morganii VGH 84-11; assay: in vitro antibacterial MIC, agar plate dilution; type: cell-based; details: VGH8411, 18 hours, 35° C., read-out: MIC
Procedure, shortened: as §2

[11] = tested on: Escherichia coli ATCC 25922; assay: in vitro antibacterial MIC, agar plate dilution; type: cell-based; details: Escherichia coli, ATCC25922, 18 h, 35° C., read-out: MIC
Procedure, shortened: as §2

[12] = tested on: Klebsiella pneumoniae MOR 84-4; assay: in vitro antibacterial MIC, agar plate dilution; type: cell-based; details: Klebsiella pneumoniae, MOR844, 18 h, 35° C., read-out: MIC
Procedure, shortened: as §2

[13] = tested on: Klebsiella pneumoniae AD; assay: in vivo antibacterial activity, survival of infected mice (Table II); design: species or system Charles River CD-1 mice; details: subcutaneous
Procedure: as §1

Row | Structure (SMILES) | Survival Ratio 7 Days After Infection ([1]; 0.5 mg/kg single dose) | Survival Ratio 7 Days After Infection ([1]; 1 mg/kg single dose) | Survival Ratio 7 Days After Infection ([1]; 2 mg/kg single dose) | Survival Ratio 7 Days After Infection ([1]; 4 mg/kg single dose) | Survival Ratio 7 Days After Infection ([1]; 8 mg/kg single dose) | MIC [2] | MIC [3] | MIC [4] | MIC [5] | MIC [6] | MIC [7] | MIC [8] | MIC [9] | MIC [10] | MIC [11] | MIC [12] | also measured
1 | CCn1cc(C(=O)O)c(=O)c2cc(F)c(N3CCN(C)C(c4ccc(Br)s4)C3)cc21 (stereo not shown) [Example 14, 7-[3-(5-Bromo-2-thienyl)-4-methyl-1-piperazinyl]-1-ethyl-6-fluoro-1,4-dihydro-4-oxo-3-quinolinecarboxylic acid] | 0/5 | 0/5 | 0/5 | 5/5 | 5/5 | > 256 µg/mL | 0.25 µg/mL (≈ 0.506 µM) | > 256 µg/mL | 128 µg/mL (≈ 259 µM) | 256 µg/mL (≈ 518 µM) | > 256 µg/mL | 0.5 µg/mL (≈ 1.01 µM) | > 256 µg/mL | > 256 µg/mL | > 256 µg/mL | > 256 µg/mL | –
2 | CCn1cc(C(=O)O)c(=O)c2cc(F)c(N3CCNC(c4cc5cc(Cl)ccc5o4)C3)cc21 (stereo not shown) [Example 18, 7-[3-(5-Chloro-2-benzofuranyl)-1-piperazinyl]-1-ethyl-6-fluoro-1,4-dihydro-4-oxo-3-quinolinecarboxylic acid] | 0/5 | 0/5 | 0/5 | 0/5 | 2/5 | > 256 µg/mL | ≤ 0.12 µg/mL | 128 µg/mL (≈ 272 µM) | 16 µg/mL (≈ 34 µM) | 16 µg/mL (≈ 34 µM) | 16 µg/mL (≈ 34 µM) | 2 µg/mL (≈ 4.26 µM) | 16 µg/mL (≈ 34 µM) | 16 µg/mL (≈ 34 µM) | 16 µg/mL (≈ 34 µM) | 32 µg/mL (≈ 68.1 µM) | Survival Ratio 7 Days After Infection ([13]; 0.25 mg/kg single dose): 0/5; Survival Ratio 7 Days After Infection ([13]; 1 mg/kg single dose): 0/5; Survival Ratio 7 Days After Infection ([13]; 4 mg/kg single dose): 1/5; Survival Ratio 7 Days After Infection ([13]; 16 mg/kg single dose): 4/5; Survival Ratio 7 Days After Infection ([13]; 64 mg/kg single dose): 5/5
